Experiments:
[1] = test system: Pest in infected Scenedesmus dimorphus culture; assay: Fungicide efficacy on pest control in infected microalgae culture; assay type: cell-based
From the text: Failure to treat an infected culture results in the collapse and loss of the microalgae culture. […] Test fungicides are graded on a rating scale of 0 to 3 where a score of 0 represents an efficacy of between 0 and 25%, a score of 1 represents an efficacy of between 26 and 50%, a score of 2 represents an efficacy of between 51 and 75% and a score of 3 represents an efficacy of between 76 and 100%.

[2] = test system: Rhizophidium planktonicum; assay: Arthrospira sp. outdoor pond, qPCR monitoring and treatment; settings: 1 ppm
Description: A 200,000 liter outdoor pond located in Las Cruces, N. Mex. is inoculated with Arthrospira sp. at an initial DW of 0.2 g/l. Growth of the microalgae is monitored daily by measuring the ash free dry weight of the culture. qPCR monitoring is performed daily to detect the presence of the chytrid fungus Rhizophidium planktonicum or close relatives using primers […] (SEQ ID NO. 40) and […] (SEQ ID NO. 41).
(§1) Initially, the Ct value for the pest is above the threshold of Ct=30. The measured Ct observed for R. planktonicum stays below Ct=30 and indicates a need for crop protective action. Once detected with a Ct<30, chlorothalonil is added at a concentration of 1 ppm. Daily monitoring is continued and the Ct observed for R. planktonicum increases above the Ct=30 threshold and remains above the threshold.

[3] = test system: Paraphysoderma sedebokerensis; assay: Haematococcus pluvialis outdoor pond, PCR monitoring and treatment; settings: 1 ppm
Description: A 200,000 liter outdoor pond is inoculated with Haematococcus pluvialis at an initial OD (750 nm) of ˜0.15 (pond P08). Growth of the microalgae is monitored daily by measuring the ash free dry weight of the culture. PCR monitoring is performed daily to detect the presence of the chytrid fungus Paraphysoderma sedebokerensis or close relatives using […] (SEQ ID NO. 38) and […] (SEQ ID NO. 39) as primers.
as §1, with “P. sedebokerensis” for “R. planktonicum”

## N#Cc1c(Cl)c(Cl)c(Cl)c(C#N)c1Cl [chlorothalonil, 2,4,5,6-tetrachlorobenzene-1,3-dicarbonitrile]
[1]; @ 2 ppm, second trial
  Scenedesmus dimorphus Efficacy confirmation: 75.7% @ 2 ppm
[1]; Tetradesmus dimorphus, read-out: Scenedesmus dimorphus efficacy
  activity at 2 ppm: 84.5%
[1]; rating scale of 0 to 3 by percent efficacy
  Rating: 3 (a score of 3 represents an efficacy of between 76 and 100%)
[2]
  Ct observed for R. planktonicum after treatment: > 30
[3]
  Ct observed for P. sedebokerensis after treatment: > 30

From patent US20140378513A1, “USE OF FUNGICIDES IN LIQUID SYSTEMS” (priority 2011, published 2014)
